Tests used:
Format in all cases: cell-based
LEP16 = assay: Differential expression by cDNA minichips in NHEK: LEP16; settings: normal human epidermal keratinocytes (NHEK), cDNA array
Protocol: (§1) Analysis of the Differential expression by Minichips:
(§2) In order to study the activity of a product on the formation of the horny layer, the effect of the product on the expression of genes known to be modulated in keratinocytes during their transformation into corneocytes is analyzed.
(§3) The analysis is performed using dedicated minichips, consisting of cDNA membrane arrays known to those skilled in the art for their relationship with re-epithelialization and/or cohesion of the horny layer, especially such as the LEP proteins (late epidermal proteins), corneodesmosines and epidermal growth factor HBEGF (human heparin-binding EGF-like growth factor).
(§4) The cell model used comprises normal human epidermal keratinocytes (NHEK). The keratinocytes are cultured in SFM medium with 0.25 ng/ml EGF and 25 μg/ml of pituitary extract at 37° C. and 5% CO2. The keratinocytes are inoculated in 25 cm^2 dishes and precultured in whole SFM medium, and then placed in EGF-free and pituitary extract-free SFM medium.
(§5) The test products are applied at the non-irritant and non-cytotoxic concentrations defined in a).
(§6) The controls correspond to the same conditions, in the absence of product.
(§7) The cells are then rinsed with PBS and then lysed and the messenger RNA is extracted and purified using the kit Chemagic mRNA Direct kit marketed by Chemagen.
(§8) The RNA of each culture is then reverse-transcripted using a pool of primers corresponding to the cDNAs immobilized on the membranes (probes) and a ^33P-labelled deoxynucleotide triphosphate.
(§9) Multiple cDNA “target” labeled sequences were thus prepared for each culture. These targets were then hybridized, under optimal conditions, with the excess “probe” cDNAs bound to the membranes. […] The membrane analysis was performed using the ImageQuant TL software (Image Analysis, Amersham Biosciences) and the data recorded were then processed on Excel. The differential expression of the various genes following the treatment is thus measured by comparison with the corresponding control.

Cdsn (corneodesmosine) = assay: Differential expression by cDNA minichips in NHEK: corneodesmosine (Cdsn); settings: normal human epidermal keratinocytes (NHEK), cDNA array
Protocol: as §1, §2, §3, §4, §5, §6, §7, §8, §9

[1] = system: HBEGF (human heparin-binding EGF-like growth factor); assay: Differential expression by cDNA minichips in NHEK: HBEGF; settings: 1 μg/ml, normal human epidermal keratinocytes (NHEK), cDNA array
Protocol: as §1, §2, §3
as §4, with “medium. […]” for “medium.”
Multiple cDNA “target” labeled sequences were thus prepared for each culture. […] The membrane analysis was performed using the ImageQuant TL software (Image Analysis, Amersham Biosciences) and the data recorded were then processed on Excel. The differential expression of the various genes following the treatment is thus measured by comparison with the corresponding control.

[2] = 1 μg/ml, listed as 8-hexadecene-1,16-dicarboxylic acid

## O=C(O)CO [Glycolic acid, reference compound]
LEP16; 100 μg/ml
  Markers for the formation of the horny layer (LEP): LEP16 expression, multiplicative factor vs control: LEP16 (×2.6)
Cdsn (corneodesmosine); 100 μg/ml
  Markers for intercorneocytic cohesion (Cdsn): Cdsn expression, multiplicative factor vs control: Cdsn (×1.6)

## CC(O)C(=O)O (stereo not shown) [Lactic acid, reference compound]
LEP16; 100 μg/ml
  Markers for the formation of the horny layer (LEP): LEP16 expression, multiplicative factor vs control: LEP16 (×1.6)

## O=C1O[C@H]([C@@H](O)CO)C(O)=C1O [Ascorbic acid, reference compound]
Cdsn (corneodesmosine); 100 μg/ml
  Markers for intercorneocytic cohesion (Cdsn): Cdsn expression, multiplicative factor vs control: Cdsn (×1.7)

## O=C(O)CCCCCCCC=CCCCCCCCC(=O)O [Dioic acid, 8-hexadecene-1,16-dicarboxylic acid]
[1]
  Re-epithelialization markers: HBEGF expression, multiplicative factor vs control: HBEGF (×1.6)
[1]; listed as 8-hexadecene-1,16-dicarboxylic acid
  Re-epithelialization markers: HBEGF expression, multiplicative factor vs control: capable of stimulating the expression
LEP16; 1 μg/ml
  Markers for the formation of the horny layer (LEP): LEP16 expression, multiplicative factor vs control: LEP16 (×3.0)
LEP16; [2]
  Markers for the formation of the horny layer (LEP): LEP16 expression, multiplicative factor vs control: capable of stimulating the expression
Cdsn (corneodesmosine); 1 μg/ml
  Markers for intercorneocytic cohesion (Cdsn): Cdsn expression, multiplicative factor vs control: Cdsn (×2.4)
Cdsn (corneodesmosine); [2]
  Markers for intercorneocytic cohesion (Cdsn): Cdsn expression, multiplicative factor vs control: capable of stimulating the expression
